Assay results taken from patent US8716276B2, “Thiophenyl and pyrrolyl azepines as serotonin 5-HT2C receptor ligands and uses thereof” (Athersys, Inc., priority 2006, dated 2014).
pEC50: −log10 of the molar value.

Target: T1, human 5HT2c receptor (VNV Isoform) (Homo sapiens, UniProt P28335, I156V/I160V)
T1 construct: expressed in transfected cells; host or cells: HEK 293 EBNA
T1 sequence (P28335 33-458 I156V/I160V): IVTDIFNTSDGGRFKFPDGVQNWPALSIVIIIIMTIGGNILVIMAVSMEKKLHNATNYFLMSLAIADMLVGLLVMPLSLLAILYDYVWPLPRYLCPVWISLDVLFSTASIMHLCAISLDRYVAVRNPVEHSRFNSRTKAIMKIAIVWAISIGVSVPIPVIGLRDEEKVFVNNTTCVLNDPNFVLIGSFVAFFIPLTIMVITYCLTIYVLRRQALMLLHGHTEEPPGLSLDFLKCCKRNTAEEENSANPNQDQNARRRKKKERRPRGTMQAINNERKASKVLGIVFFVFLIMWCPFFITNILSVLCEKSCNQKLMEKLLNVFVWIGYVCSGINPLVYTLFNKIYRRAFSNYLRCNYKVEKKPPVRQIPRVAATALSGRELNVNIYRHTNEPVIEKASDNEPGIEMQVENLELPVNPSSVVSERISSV
Experiment: Calcium mobilization (FLIPR) 5HT2c receptor agonist assay
Assay type: cell-based
Conditions: HEK 293 EBNA cells expressing human 5HT2c receptor (VNV isoform), agonist-induced calcium fluorescence, read-out: 5-HT2c EC50 (hVNV)
Description: The following procedure was utilized to evaluate representative compounds of the present invention as 5HT2c, receptor agonists.
5HT was utilized as a positive control. Ligand-induced calcium release and consequent fluorescence was measured on a Fluorometric Imaging Plate Reader (FLIPR, Molecular Device, CA).
All data were analyzed by nonlinear least square curve fitting using Prism 4.0 software. Agonist stimulation of calcium-induced fluorescence in FLIPR was fitted to sigmoidal dose response using equation Y=Bottom+(Top−Bottom)/(1+10^((Log EC50−X))), where X is the logarithm of concentration of compounds and Y is the fluorescent response.

Q: With CC(c1cc2c(s1)CCNCC2)C(F)(F)F (racemic) [Example 4, (R,S)-2-(2,2,2-Trifluoro-1-methyl-ethyl)-5,6,7,8-tetrahydro-4H-thieno[2,3-d]azepine] as the molecule, how does the pEC50 read?
A: > 8.00

Q: With FC(F)(F)C1CCc2c1sc1c2CCNCC1 (racemic) [Example 6, (R,S)-1-Trifluoromethyl-1,2,3,4,5,6,7,8-octahydro-9-thia-6-aza-cyclopenta[a]azulene] as the molecule, how does the pEC50 read?
A: > 8.00

Q: How did the pEC50 turn out when CC1(C)CC(C(F)(F)F)c2sc3c(c21)CCNCC3 (racemic) [Example 7, (R,S)-3,3-Dimethyl-1-trifluoromethyl-1,2,3,4,5,6,7,8-octahydro-9-thia-6-aza-cyclopenta[a]azulene] was run?
A: > 6.00

Q: CC1CNCCc2sc(C(=O)C(C)(C)C)cc21 (racemic) [Example 11, (R,S)-2,2-Dimethyl-1-(4-methyl-5,6,7,8-tetrahydro-4H-thieno[2,3-d]azepin-2-yl)-propan-1-one] was tested. Which pEC50 did it give?
A: > 7.00

Q: How did the pEC50 turn out when FC(F)(F)Cc1sc2c3c1CCC3CNCC2 (racemic) [Example 13, (R,S)-2-(2,2,2-Trifluoro-ethyl)-4,4a,5,6,7,8-hexahydro-3H-1-thia-6-aza-cyclopenta[cd]azulene] was run?
A: > 7.00

Q: With CC1(C)CC2CNCCc3sc(Br)c1c32 (racemic) [Example 14, (R,S)-2-Bromo-3,3-dimethyl-4,4a,5,6,7,8-hexahydro-3H-1-thia-6-aza-cyclopenta[cd]azulene] as the molecule, how does the pEC50 read?
A: > 6.00

Q: With CC1Cc2cc(Br)sc2CCN1 (racemic) [Example 15, (R,S)-2-Bromo-5-methyl-5,6,7,8-tetrahydro-4H-thieno[2,3-d]azepine] as the molecule, how does the pEC50 read?
A: > 6.00

Q: How did the pEC50 turn out when CC1CNCCc2sc3c(c21)C(C)(C)CC3C(F)(F)F (single isomer, unassigned) [17 Diastereomer 1] was run?
A: > 7.00

Q: CC1CNCCc2sc3c(c21)C(C)(C)CC3C(F)(F)F (single isomer, unassigned) [17 Diastereomer 2] was tested. Which pEC50 did it give?
A: > 6.00

Q: With CC1CNCCc2sc(CC(F)(F)F)c(Br)c21 (single isomer, unassigned) [Example 9, 3-Bromo-4-methyl-2-(2,2,2-trifluoro-ethyl)-5,6,7,8-tetrahydro-4H-thieno[2,3-d]azepine] as the molecule, how does the pEC50 read?
A: > 7.00

Q: How did the pEC50 turn out when CCS(=O)(=O)c1sc2c(c1C)C(C)CNCC2 (single isomer, unassigned) [Example 10, 2-Ethanesulfonyl-3,4-dimethyl-5,6,7,8-tetrahydro-4H-thieno[2,3-d]azepine] was run?
A: > 7.00

Q: With CC1CNCCc2sc(C(=O)C(C)(C)C)c(Br)c21 (single isomer, unassigned) [Example 12, 1-(3-Bromo-4-methyl-5,6,7,8-tetrahydro-4H-thieno[2,3-d]azepin-2-yl)-2,2-dimethyl-propan-1-one] as the molecule, how does the pEC50 read?
A: > 7.00

Q: CC1CNCCc2sc3c(c21)CCC3C(F)(F)F (single isomer, unassigned) [Example 16, 4-Methyl-1-trifluoromethyl-1,2,3,4,5,6,7,8-octahydro-9-thia-6-aza-cyclopenta[a]azulene] was tested. Which pEC50 did it give?
A: > 7.00

Q: How did the pEC50 turn out when Cc1c(C(=O)C(C)(C)C)sc2c1CCNCC2 [Example 1, 2,2-Dimethyl-1-(3-methyl-5,6,7,8-tetrahydro-4H-thieno[2,3-d]azepin-2-yl)-propan-1-one] was run?
A: > 7.00

Q: With FC(F)(F)Cc1sc2c(c1Br)CCNCC2 [Example 2, 3-Bromo-2-(2,2,2-trifluoro-ethyl)-5,6,7,8-tetrahydro-4H-thieno[2,3-d]azepine] as the molecule, how does the pEC50 read?
A: > 8.00

Q: With O=S(=O)(c1ccccc1)c1cc2c(s1)CCNCC2 [Example 3, 2-Benzenesulfonyl-5,6,7,8-tetrahydro-4H-thieno[2,3-d]azepine] as the molecule, how does the pEC50 read?
A: > 8.00

Q: With CCS(=O)(=O)c1cc2c(s1)CCNCC2 [Example 5, 2-Ethanesulfonyl-5,6,7,8-tetrahydro-4H-thieno[2,3-d]azepine] as the molecule, how does the pEC50 read?
A: > 8.00

Q: How did the pEC50 turn out when CC(C)(c1cc2c(s1)CCNCC2)C(F)(F)F [Example 8, 2-(2,2,2-Trifluoro-1,1-dimethyl-ethyl)-5,6,7,8-tetrahydro-4H-thieno[2,3-d]azepine] was run?
A: > 7.00

Q: With CC(C)(C)C(=O)c1cc2c(s1)CCNCC2 [Example 18, 2,2-Dimethyl-1-(5,6,7,8-tetrahydro-4H-thieno[2,3-d]azepin-2-yl)-propan-1-one] as the molecule, how does the pEC50 read?
A: > 8.00

Q: How did the pEC50 turn out when CC(C)(C)C(=O)c1sc2c(c1Cl)CCNCC2 [Example 19, 1-(3-Chloro-5,6,7,8-tetrahydro-4H-thieno[2,3-d]azepin-2-yl)-2,2-dimethyl-propan-1-one] was run?
A: > 7.00
